# Data from US9556179B2 (BRISTOL-MYERS SQUIBB COMPANY, priority 2012, dated 2017).
# Columns and labels:
# [1] = target: CK1δ (Homo sapiens (Human), UniProt P48730); assay: CK1δ kinase assay (Caliper LABCHIP electrophoretic separation of fluoresceinated peptide substrate and product); type: biochemical; conditions: 200 pM enzyme, 50 μM ATP, 22 hours at room temperature
# Outline: (§1)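 IC50 values were obtained by non-linear regression from eleven-concentration titrations. The kinase reactions were incubated for 22 hours at room temperature before termination with 35 mM EDTA.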
# [2] = target: CK1ε (Homo sapiens (Human), UniProt P49674); assay: CK1ε kinase assay (Caliper LABCHIP electrophoretic separation of fluoresceinated peptide substrate and product); type: biochemical; conditions: 200 pM enzyme, 50 μM ATP, 22 hours at room temperature
# Outline: as §1
# Chain of CK1ε (P49674 whole entry): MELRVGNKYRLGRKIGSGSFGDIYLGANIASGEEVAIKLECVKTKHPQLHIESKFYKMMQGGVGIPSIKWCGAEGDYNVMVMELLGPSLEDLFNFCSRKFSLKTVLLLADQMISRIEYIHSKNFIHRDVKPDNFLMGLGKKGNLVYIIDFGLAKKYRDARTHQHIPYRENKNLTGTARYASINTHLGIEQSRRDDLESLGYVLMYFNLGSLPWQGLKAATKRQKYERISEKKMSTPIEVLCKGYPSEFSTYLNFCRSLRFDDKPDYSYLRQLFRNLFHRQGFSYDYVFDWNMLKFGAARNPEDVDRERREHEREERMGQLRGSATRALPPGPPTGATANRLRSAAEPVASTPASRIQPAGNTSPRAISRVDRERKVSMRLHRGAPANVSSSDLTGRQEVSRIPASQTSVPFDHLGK
# Chain of CK1δ (P48730 whole entry): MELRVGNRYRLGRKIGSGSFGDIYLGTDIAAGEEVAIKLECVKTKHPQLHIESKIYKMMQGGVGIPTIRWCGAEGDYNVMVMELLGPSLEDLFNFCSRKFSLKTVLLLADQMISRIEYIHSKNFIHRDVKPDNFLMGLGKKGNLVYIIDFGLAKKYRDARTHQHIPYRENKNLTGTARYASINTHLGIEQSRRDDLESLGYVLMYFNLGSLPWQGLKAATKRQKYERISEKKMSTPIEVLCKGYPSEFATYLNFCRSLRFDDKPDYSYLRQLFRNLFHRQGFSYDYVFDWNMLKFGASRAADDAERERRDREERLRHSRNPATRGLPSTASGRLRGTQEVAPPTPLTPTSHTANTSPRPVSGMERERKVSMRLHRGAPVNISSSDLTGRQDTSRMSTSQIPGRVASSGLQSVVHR
Compound,IC50 [1],IC50 [2]
"COCCN1CCC(n2c(C)nc(-c3ccc(F)cc3)c2-c2ccc3nc(NC(=O)c4ccnc(F)c4)cn3n2)CC1 [Compound 141, 2-fluoro-N-(6-(4-(4-fluorophenyl)-1-(1-(2-methoxyethyl)piperidin-4-yl)-2-methyl-1H-imidazol-5-yl)imidazo [1,2-b]pyridazin-2-yl) isonicotinamide]",1.03 nM,16 nM
"Cc1nc(-c2ccc(F)cc2)c(-c2ccc3nc(NC(=O)c4ccnc(F)c4)cn3n2)n1C1CCN(C[C@@H](O)C(F)(F)F)CC1 [Compound 142, (R)-2-fluoro-N-(6-(4-(4-fluorophenyl)-2-methyl-1-(1-(3,3,3-trifluoro-2-hydroxypropyl)piperidin-4-yl)-1H-imidazol-5-yl)imidazo[1,2-b]pyridazin-2-yl)isonicotinamide]",0.414 nM,2.55 nM
"Cc1nc(-c2ccc(F)cc2)c(-c2ccc3nc(NC(=O)c4ccnc(F)c4)cn3n2)n1C1CCN(C[C@H](O)C(F)(F)F)CC1 [Compound 143, (S)-2-fluoro-N-(6-(4-(4-fluorophenyl)-2-methyl-1-(1-(3,3,3-trifluoro-2-hydroxypropyl)piperidin-4-yl)-1H-imidazol-5-yl)imidazo [1,2-b]pyridazin-2-yl)isonicotinamide]",0.112 nM,0.656 nM
"Cc1nc(-c2ccc(F)cc2)c(-c2ccc3nc(NC(=O)c4ccnc(F)c4)cn3n2)n1C1CCN(CCC#N)CC1 [Compound 144, N-(6-(1-(1-(2-cyanoethyl)piperidin-4-yl)-4-(4-fluorophenyl)-2-methyl-1H-imidazol-5-yl)imidazo[1,2-b]pyridazin-2-yl)-2-fluoroisonicotinamide]",0.254 nM,1.55 nM
"Cc1nc(-c2ccc(F)cc2)c(-c2ccc3nc(NC(=O)c4ccnc(F)c4)cn3n2)n1C1CCN(CCC(F)(F)F)CC1 [Compound 145, 2-fluoro-N-(6-(4-(4-fluorophenyl)-2-methyl-1-(1-(3,3,3-trifluoropropyl)piperidin-4-yl)-1H-imidazol-5-yl)imidazo[1,2-b]pyridazin-2-yl)isonicotinamide]",0.962 nM,9.51 nM
"Cc1nc(-c2ccc(F)cc2)c(-c2ccc3nc(NC(=O)c4ccnc(F)c4)cn3n2)n1C1CCN(CCCC(F)(F)F)CC1 [Compound 146, 2-fluoro-N-(6-(4-(4-fluorophenyl)-2-methyl-1-(1-(4,4,4-trifluorobutyl)piperidin-4-yl)-1H-imidazol-5-yl)imidazo[1,2-b]pyridazin-2-yl)isonicotinamide]",2.24 nM,24.8 nM
"Cc1nc(-c2ccc(F)cc2)c(-c2ccc3nc(NC(=O)c4ccnc(F)c4)cn3n2)n1C1CCN(C(=O)c2ccsn2)CC1 [Compound 147, 2-fluoro-N-(6-(4-(4-fluorophenyl)-1-(1-(isothiazole-3-carbonyl)piperidin-4-yl)-2-methyl-1H-imidazol-5-yl)imidazo[1,2-b]pyridazin-2-yl)isonicotinamide]",0.529 nM,4.9 nM
"O=C(Nc1cn2nc(-c3c(-c4ccc(F)cc4)ncn3C3CNC3)ccc2n1)c1ccnc(F)c1 [Compound 148, N-(6-(1-(azetidin-3-yl)-4-(4-fluorophenyl)-1H-imidazol-5-yl)imidazo[1,2-b]pyridazin-2-yl)-2-fluoroisonicotinamide]",0.608 nM,9.87 nM
"CN1CC(n2cnc(-c3ccc(F)cc3)c2-c2ccc3nc(NC(=O)c4ccnc(F)c4)cn3n2)C1 [Compound 149, 2-fluoro-N-(6-(4-(4-fluorophenyl)-1-(1-methylazetidin-3-yl)-1H-imidazol-5-yl)imidazo[1,2-b]pyridazin-2-yl)isonicotinamide]",2.19 nM,2.84 nM
"O=C(Nc1cn2nc(-c3c(-c4ccc(F)cc4)ncn3C3CN(CCO)C3)ccc2n1)c1ccnc(F)c1 [Compound 150, 2-fluoro-N-(6-(4-(4-fluorophenyl)-1-(1-(2-hydroxyethyl)azetidin-3-yl)-1H-imidazol-5-yl)imidazo[1,2-b]pyridazin-2-yl)isonicotinamide]",0.034 nM,3.81 nM
"Cc1nc(-c2cccnc2)sc1C(=O)Nc1cn2nc(-c3c(-c4ccc(F)cc4)ncn3C3CNC3)ccc2n1 [Compound 153, N-(6-(1-(azetidin-3-yl)-4-(4-fluorophenyl)-1H-imidazol-5-yl)imidazo[1,2-b]pyridazin-2-yl)-4-methyl-2-(pyridin-3-yl)thiazole-5-carboxamide]",0.204 nM,5.29 nM
"Cc1nc(-c2cccnc2)sc1C(=O)Nc1cn2nc(-c3c(-c4ccc(F)cc4)ncn3C3CN(C)C3)ccc2n1 [Compound 154, N-(6-(4-(4-fluorophenyl)-1-(1-methylazetidin-3-yl)-1H-imidazol-5-yl)imidazo[1,2-b]pyridazin-2-yl)-4-methyl-2-(pyridin-3-yl)thiazole-5-carboxamide]",0.915 nM,8.64 nM
"Cc1nc(-c2cccnc2)sc1C(=O)Nc1cn2nc(-c3c(-c4ccc(F)cc4)ncn3C3CN(CCO)C3)ccc2n1 [Compound 155, N-(6-(4-(4-fluorophenyl)-1-(1-(2-hydroxyethyl)azetidin-3-yl)-1H-imidazol-5-yl)imidazo[1,2-b]pyridazin-2-yl)-4-methyl-2-(pyridin-3-yl)thiazole-5-carboxamide]",0.451 nM,7.48 nM
"Cc1nc(-c2cccnc2)sc1C(=O)Nc1cn2nc(-c3c(-c4ccc(F)cc4)ncn3C3CN(C(=O)CN)C3)ccc2n1 [Compound 156, N-(6-(1-(1-(2-aminoacetyl)azetidin-3-yl)-4-(4-fluorophenyl)-1H-imidazol-5-yl)imidazo[1,2-b]pyridazin-2-yl)-4-methyl-2-(pyridin-3-yl)thiazole-5-carboxamide]",0.249 nM,0.976 nM
"O=C(Nc1cn2nc(-c3c(-c4ccc(F)cc4)ncn3C3CNC3)ccc2n1)c1ccncc1 [Compound 157, N-(6-(1-(azetidin-3-yl)-4-(4-fluorophenyl)-1H-imidazol-5-yl)imidazo[1,2-b]pyridazin-2-yl)isonicotinamide]",0.587 nM,9.93 nM
"CN1CC(n2cnc(-c3ccc(F)cc3)c2-c2ccc3nc(NC(=O)c4ccncc4)cn3n2)C1 [Compound 158, N-(6-(4-(4-fluorophenyl)-1-(1-methylazetidin-3-yl)-1H-imidazol-5-yl)imidazo[1,2-b]pyridazin-2-yl)isonicotinamide]",0.854 nM,2.73 nM
"O=C(Nc1cn2nc(-c3c(-c4ccc(F)cc4)ncn3C3CN(CCO)C3)ccc2n1)c1ccncc1 [Compound 159, N-(6-(4-(4-fluorophenyl)-1-(1-(2-hydroxyethyl)azetidin-3-yl)-1H-imidazol-5-yl)imidazo[1,2-b]pyridazin-2-yl)isonicotinamide]",1.31 nM,5.6 nM
"O=C(Nc1cn2nc(-c3c(-c4ccc(F)cc4)ncn3CCN3CCOCC3)ccc2n1)c1ccncc1 [Compound 160, N-(6-(4-(4-fluorophenyl)-1-(2-morpholinoethyl)-1H-imidazol-5-yl)imidazo[1,2-b]pyridazin-2-yl)isonicotinamide]",0.306 nM,3.21 nM
"O=C(Nc1cn2nc(-c3c(-c4ccc(F)cc4)ncn3CCN3CCOCC3)ccc2n1)c1ccnc(F)c1 [Compound 161, 2-fluoro-N-(6-(4-(4-fluorophenyl)-1-(2-morpholinoethyl)-1H-imidazol-5-yl)imidazo[1,2-b]pyridazin-2-yl) isonicotinamide]",0.415 nM,2.5 nM
"O=C(Nc1cn2nc(-c3c(-c4ccc(F)cc4)ncn3CCN3CCOCC3)ccc2n1)c1cc(F)nc(F)c1 [Compound 162, 2,6-difluoro-N-(6-(4-(4-fluorophenyl)-1-(2-morpholinoethyl)-1H-imidazol-5-yl)imidazo[1,2-b]pyridazin-2-yl)isonicotinamide]",0.311 nM,2.42 nM
"Cc1nc(-c2cccnc2)sc1C(=O)Nc1cn2nc(-c3c(-c4ccc(F)cc4)ncn3CCN3CCOCC3)ccc2n1 [Compound 163, N-(6-(4-(4-fluorophenyl)-1-(2-morpholinoethyl)-1H-imidazol-5-yl)imidazo [1,2-b]pyridazin-2-yl)-4-methyl-2-(pyridin-3-yl) thiazole-5-carboxamide]",0.242 nM,0.936 nM
"N#CCC(=O)Nc1cn2nc(-c3c(-c4ccc(F)cc4)ncn3CCN3CCOCC3)ccc2n1 [Compound 164, 2-cyano-N-(6-(4-(4-fluorophenyl)-1-(2-morpholinoethyl)-1H-imidazol-5-yl)imidazo [1,2-b]pyridazin-2-yl) acetamide]",4.37 nM,67.3 nM
"O=C(CO)Nc1cn2nc(-c3c(-c4ccc(F)cc4)ncn3CCN3CCOCC3)ccc2n1 [Compound 165, N-(6-(4-(4-fluorophenyl)-1-(2-morpholinoethyl)-1H-imidazol-5-yl)imidazo [1,2-b]pyridazin-2-yl)-2-hydroxyacetamide]",4.64 nM,53.6 nM
"O=C(Nc1cn2nc(-c3c(-c4ccc(F)cc4)ncn3CCN3CCOCC3)ccc2n1)c1ccnc2ccccc12 [Compound 166, N-(6-(4-(4-fluorophenyl)-1-(2-morpholinoethyl)-1H-imidazol-5-yl)imidazo[1,2-b]pyridazin-2-yl)quinoline-4-carboxamide]",0.192 nM,1.3 nM
"O=C(Nc1cn2nc(-c3c(-c4ccc(F)cc4)ncn3CCN3CCOCC3)ccc2n1)c1cccc(-c2cccnc2)c1 [Compound 167, N-(6-(4-(4-fluorophenyl)-1-(2-morpholinoethyl)-1H-imidazol-5-yl)imidazo[1,2-b]pyridazin-2-yl)-3-(pyridin-3-yl)benzamide]",0.104 nM,0.687 nM
"O=C(Nc1cn2nc(-c3c(-c4ccc(F)cc4)ncn3CCN3CCOCC3)ccc2n1)c1ccnc(N2CCOCC2)c1 [Compound 168, N-(6-(4-(4-fluorophenyl)-1-(2-morpholinoethyl)-1H-imidazol-5-yl)imidazo[1,2-b]pyridazin-2-yl)-2-morpholinoisonicotinamide]",0.11 nM,1.73 nM
